Paper PMC6934184, “Selective DNA-PKcs inhibition extends the therapeutic index of localized radiotherapy and chemotherapy” (The Journal of Clinical Investigation, 2019)

Target: T1, LIMK1 (Homo sapiens, UniProt P53667)
T1 construct: purchased Thermo Fisher Scientific (Life Technologies) SelectScreen
Test: SelectScreen LanthaScreen
Assay type: binding
Conditions: read-out: % displacement
Method in brief: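 NU5455 was profiled across the SelectScreen Broad panel of kinase activity and binding assays. Z'LYTE reactions such as CSF1R ran at apparent Km ATP, while the Adapta CAMK1 assay used ATP listed as 10. Values are given as percent.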

T1 sequence (P53667 whole entry): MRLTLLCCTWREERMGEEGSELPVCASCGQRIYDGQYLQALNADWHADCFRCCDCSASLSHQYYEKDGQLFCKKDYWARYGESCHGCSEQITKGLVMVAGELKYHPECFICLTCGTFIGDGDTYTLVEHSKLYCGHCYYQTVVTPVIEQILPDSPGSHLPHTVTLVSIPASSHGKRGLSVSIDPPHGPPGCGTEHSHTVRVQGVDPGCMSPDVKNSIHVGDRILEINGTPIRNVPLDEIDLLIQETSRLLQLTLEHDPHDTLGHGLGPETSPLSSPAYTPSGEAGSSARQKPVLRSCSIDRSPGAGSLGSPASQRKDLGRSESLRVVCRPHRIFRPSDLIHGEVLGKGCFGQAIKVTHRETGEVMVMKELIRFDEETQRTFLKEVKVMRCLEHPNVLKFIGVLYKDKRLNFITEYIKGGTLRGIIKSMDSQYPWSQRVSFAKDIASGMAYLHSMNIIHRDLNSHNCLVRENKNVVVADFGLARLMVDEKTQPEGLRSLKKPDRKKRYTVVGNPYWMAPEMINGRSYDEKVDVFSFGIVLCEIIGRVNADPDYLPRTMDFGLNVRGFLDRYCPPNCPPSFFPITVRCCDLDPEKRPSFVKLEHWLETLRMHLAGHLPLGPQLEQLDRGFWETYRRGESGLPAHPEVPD

`CN(C(=O)CN1CCOCC1)c1ccc2sc3c(-c4cccc5c(=O)cc(N6CC7CCC(C6)O7)oc45)cccc3c2c1` [NU5455] gave an inhibition at 1 µM of -1.7%.
